From patent US20250188151A1, “C-JUN ANTAGONIST PEPTIDES” (The University of Bath, priority 2022, published 2025) come the findings set out here.

The target of one data set is cJun bZIP (Homo sapiens, UniProt P05412, S292Y). The data set is described as follows: CD spectra and thermal denaturation of peptide/cJun heterodimers. The note with it: peptide (5 μM)/c-Jun (5 μM) heterodimer; Table 6.
The next data set addresses cJun (Homo sapiens, UniProt P05412, S292Y). The data set is described as follows: Isothermal titration calorimetry, Example 2 (PEAQ-ITC). Format: binding. The arrangement: The same 60 amino acid c-Jun bZIP construct was used for all experiments; His-SUMO (N, cleaved yes); made in house; host or cells: E. coli. The note with it: ITC; for Stoichiometry, n: c-Jun-peptide interaction. The method, then: 2 μL injections of antagonist peptide at 25-200 μM were injected into the cell containing cJun at 2.5-20 μM. Software was used to record and analyse the heat change upon addition. Control experiments involved the injection of the antagonist peptide sample into the cell containing ITC buffer alone to determine the heat of dilution which was subtracted. The resulting binding data were fit to a one site binding model to extract the enthalpy change of binding (ΔH) and the equilibrium binding constant (KD), from which the free energy change of binding (ΔG) and the entropy change of binding (ΔS) was calculated (Wiseman et al., 1989). Thermodynamic parameters are presented as an average of two independent experiments with errors given as one standard deviation.

The next data set deals with T1, cJun/TRE DNA interaction (Homo sapiens, UniProt P05412, S292Y).
T1 construct: The same 60 amino acid c-Jun bZIP construct was used for all experiments; His-SUMO (N, cleaved yes); made in house; host or cells: E. coli
The data set is described as follows: CD cJun/TRE DNA antagonism (shift of TRE DNA peak at ~281 nm, Hill fit). The data set is classed as biochemical. The source says:
Briefly, in TBS the coding region for the essential gene dihydrofolate reductase (DHFR) is mutated to incorporate TRE sites so that introduction of c-Jun to this gene inside E. coli produces a transcriptional block that abrogates cell proliferation. The TRE site-bound c-Jun molecules sterically prevent RNA polymerase transcribing the essential gene and this can only be restored upon introduction of an effective c-Jun/TRE antagonist. Consequently, the survival of a particular cell is controlled by the ability of a peptide library member to remove the c-Jun transcriptional block and therefore to restore DHFR activity. TBS thus facilitates the identification of therapeutically valuable sequences. Further details for the TBS assay are provided in WO2020128015, which is incorporated herein by reference in its entirety. […] The TRE-DNA construct produces a positive CD peak at ˜281 nm, which decreases in intensity upon c-Jun binding. […] This method allows for the calculation of an IC50 value by fitting the titration data to a Hill equation. In some embodiments, the c-Jun antagonist is able to inhibit the DNA-binding activity of c-Jun within 10-fold of the ability of HingeW to inhibit the DNA-binding activity of c-Jun (e.g. the c-Jun antagonist has a reduced ability to inhibit the DNA-binding activity of c-Jun that is within 10-fold of that determined for HingeW). In some embodiments, the c-Jun antagonist is able to inhibit the DNA-binding activity of c-Jun within 9-fold, preferably within 8-fold, more preferably within 7-fold, even more preferably within 6-fold, yet more preferably within 5-fold of the ability of HingeW to inhibit the DNA-binding activity of c-Jun. The ability of the c-Jun antagonist and HingeW to inhibit the DNA-binding activity may be measured using the TBS assay (e.g. by quantifying the number of colonies) or by determining the IC50 using a circular dichroism assay described herein. Optionally, the c-Jun antagonist may have this activity when cross-linked. Methods for cross-linking peptides are described in more detail below.
Therefore, the acidic domain was the initial focus for optimisation. 1 was iteratively truncated (2-6) to investigate the effect on c-Jun binding and c-Jun/TRE DNA antagonism. […] Thermal denaturation experiments were then used to determine the Tm of peptide-c-Jun heterodimers, which was used as an approximate measure of target engagement. CD was also used to investigate the ability of the functional activity of peptides in antagonising the c-Jun/TRE DNA interaction. The TRE-DNA construct used produces a positive CD peak at ˜281 nm (no c-Jun absorbance at this wavelength allows for direct measurement of DNA upon binding) which decreases in intensity upon c-Jun binding. […] This allowed for the calculation of an IC50 value by fitting the titration data to a Hill equation. […] The same 60 amino acid c-Jun bZIP construct was used for all experiments, regardless of antagonist peptide length.

A short description of data set [1]: CD spectra and thermal denaturation of peptide-only samples (helicity, homodimer Tm). The note with it: for change in fraction helicity from lactamisation: cyclised vs its linear form.
Protocol: (§1) Circular Dichroism (CD): An Applied Photophysics Chirascan was used for CD measurements, with a 200 μL sample in a 1 mm path length CD cell. Protein/DNA samples were suspended in 150 mM potassium phosphate, 150 mM potassium fluoride and 5 mM TCEP at pH 7.4 and were equilibrated for 30 minutes before measurement. […] These scans were averaged and converted to molar residue ellipticities (MRE). Thermal denaturation experiments were performed by measuring the ellipticity at 222 nm over a 1 to 90° C. gradient at 1° C. increments. Post-melt scans at 20° C. confirmed the transitions were reversible as they overlaid within 10% of the pre-melt scan.
(§2) Circular Dichroism (CD): An Applied Photophysics Chirascan was used for CD measurements, with a 200 μL sample in a 1 mm path length CD cell. Protein/DNA samples were suspended in 150 mM potassium phosphate, 150 mM potassium fluoride and 5 mM TCEP at pH 7.4 and were equilibrated for 30minutes before measurement. […] Thermal denaturation experiments were performed by measuring the ellipticity at 222 nm over a 1 to 90° C. gradient at 1° C. increments. Post-melt scans at 20° C. confirmed the transitions were reversible as they overlaid within 10% of the pre-melt scan.
(§3) Peptide helicity was determined by quantifying the CD signal at 222 nm of peptide only samples. Thermal denaturation experiments were then used to determine the Tm of peptide-c-Jun heterodimers, which was used as an approximate measure of target engagement. […] The same 60 amino acid c-Jun bZIP construct was used for all experiments, regardless of antagonist peptide length.

Bridge positions count the residues as written; N and C are the ends. Peptide text beside a SMILES is read from it.

Protocol for cJun bZIP: as §1, §2, §3

`CC[C@H](C)[C@H](NC(=O)[C@H](CCC(=O)O)NC(=O)[C@H](CCCCN)NC(=O)[C@H](CCCNC(=N)N)NC(=O)[C@H](CC(C)C)NC(=O)[C@H](C)NC(=O)[C@H](Cc1ccc(O)cc1)NC(=O)[C@H](CC(N)=O)NC(=O)[C@H](CCCNC(=N)N)NC(=O)[C@H](CCC(=O)O)NC(=O)[C@H](CCC(=O)O)NC(=O)[C@H](CC(C)C)NC(=O)[C@H](CCC(N)=O)NC(=O)[C@H](CCC(=O)O)NC(=O)[C@@H](NC(=O)[C@H](CCC(=O)O)NC(=O)[C@@H]1CC(=O)NCCCC[C@H](NC(=O)[C@H](CCC(=O)O)NC(=O)[C@H](CCC(=O)O)NC(=O)[C@@H](NC(=O)[C@@H](NC(=O)[C@H](CC(C)C)NC(=O)[C@H](CCC(=O)O)NC(=O)[C@H](CCC(=O)O)NC(=O)[C@H](C)NC(=O)[C@H](CCC(=O)O)NC(C)=O)C(C)C)C(C)C)C(=O)N[C@@H](C(C)C)C(=O)N[C@@H](CC(C)C)C(=O)N[C@@H](CCC(=O)O)C(=O)N1)[C@@H](C)CC)C(=O)N[C@@H](CCC(=O)O)C(=O)N[C@@H](CC(=O)O)C(=O)N[C@@H](CC(C)C)C(=O)N[C@@H](CCC(N)=O)C(=O)N[C@@H](CCCCN)C(=O)N[C@@H](CCC(N)=O)C(N)=O` [Peptide 17] (Ac-EAEELVVEEKVLEDEIEQLEERNYALRKEIEDLQKQ-NH2; lactam 10-14): the “Tm (° C.)” value on cJun bZIP came out at 64.0 ± 0.8 °C. On cJun, the “ΔG” value was -9.766 ± 0.0669 kcal/mol; the “ΔH” value was -14.1 ± 0.402 kcal/mol; the “−TΔS” value amounted to 4.336 ± 0.406 kcal/mol; the “Stoichiometry, n” value is given as 1.20 ± 0.02. For the same compound, on cJun/TRE DNA interaction (P=0.24), the “effect of lactamisation on antagonism” value is listed as “did not lead to a significant increase in antagonism”. Moreover, the “change in fraction helicity from lactamisation” value in data set [1] is given as ~5%.

For the compound `CC[C@H](C)[C@H](NC(=O)[C@H](CCC(=O)O)NC(=O)[C@H](CCCCN)NC(=O)[C@H](CCCNC(=N)N)NC(=O)[C@H](CC(C)C)NC(=O)[C@H](C)NC(=O)[C@H](Cc1ccc(O)cc1)NC(=O)[C@H](CC(N)=O)NC(=O)[C@H](CCCNC(=N)N)NC(=O)[C@H](CCC(=O)O)NC(=O)[C@H](CCC(=O)O)NC(=O)[C@H](CC(C)C)NC(=O)[C@H](CCC(N)=O)NC(=O)[C@H](CCC(=O)O)NC(=O)[C@@H](NC(=O)[C@H](CCC(=O)O)NC(=O)[C@H](CCC(=O)O)NC(=O)[C@H](CCC(=O)O)NC(=O)[C@H](CC(C)C)NC(=O)[C@@H](NC(=O)[C@H](CC(=O)O)NC(=O)[C@H](CCC(=O)O)NC(=O)[C@H](CCC(=O)O)NC(=O)[C@@H](NC(=O)[C@@H](NC(=O)[C@H](CC(C)C)NC(=O)[C@@H]1CC(=O)NCCCC[C@H](NC(C)=O)C(=O)N[C@@H](CCC(=O)O)C(=O)N[C@@H](C)C(=O)N[C@@H](CCC(=O)O)C(=O)N1)C(C)C)C(C)C)C(C)C)[C@@H](C)CC)C(=O)N[C@@H](CCCCN)C(=O)N[C@@H](CC(=O)O)C(=O)N[C@@H](CC(C)C)C(=O)N[C@@H](CCC(N)=O)C(=O)N[C@@H](CC(=O)O)C(=O)N[C@@H](CCC(N)=O)C(N)=O` [Peptide 13] (Ac-KEAEDLVVEEDVLEEEIEQLEERNYALRKEIKDLQDQ-NH2; lactam 1-5), the “Tm (° C.)” value on cJun bZIP was 58.5 ± 1.0 °C. The “change in fraction helicity from lactamisation” value in data set [1] was ~1%.

For “Ac-EDVLEEEIEQLEERNYALRKEIEDLQKQLEKLGAP-NH2 [Peptide 6]”, the “Tm (° C.)” value on cJun bZIP is 55.1 ± 1.1 °C. Moreover, at cJun/TRE DNA interaction (ratio of CD IC50), the “fold reduction in antagonism relative to 5” value amounted to 1.7 fold and the “fold reduction in cJun/TRE antagonism relative to 1” value is 9.7 fold.

With “RIKAERKRMRNRIAASKCRKRKLERIARLEEKVKTLKAQNYELASTANMLREQVAQLGAP [cJun]”, in data set [1] (peptide alone), the “Fraction helicity at 20° C. (CD)” value was 14.0%. Further, the “Tm (° C.) (CD)” value in data set [1] (peptide alone (homodimer)) stood at 39.8 °C.

As for `CC[C@H](C)[C@H](NC(=O)[C@H](CCC(=O)O)NC(=O)[C@@H]1CC(=O)NCCCC[C@H](NC(=O)[C@H](CC(N)=O)NC(=O)[C@H](CCCCN)NC(=O)[C@H](CCC(=O)O)NC(=O)[C@H](CCC(=O)O)NC(=O)[C@H](CC(C)C)NC(=O)[C@H](CCC(N)=O)NC(=O)[C@H](CCC(=O)O)NC(=O)[C@@H](NC(=O)[C@H](CCC(=O)O)NC(=O)[C@H](CCC(=O)O)NC(=O)[C@H](CCC(=O)O)NC(=O)[C@H](CC(C)C)NC(=O)[C@@H](NC(=O)[C@H](CC(=O)O)NC(=O)[C@H](CCC(=O)O)NC(=O)[C@H](CCC(=O)O)NC(=O)[C@@H](NC(=O)[C@@H](NC(=O)[C@H](CC(C)C)NC(C)=O)C(C)C)C(C)C)C(C)C)[C@@H](C)CC)C(=O)N[C@@H](C)C(=O)N[C@@H](CC(C)C)C(=O)N[C@@H](CCCCN)C(=O)N1)C(=O)N[C@@H](CCC(=O)O)C(=O)N[C@@H](CC(=O)O)C(=O)N[C@@H](CC(C)C)C(=O)N[C@@H](CCC(N)=O)C(=O)N[C@@H](CCCCN)C(=O)N[C@@H](CCC(N)=O)C(=O)N[C@@H](CC(C)C)C(=O)N[C@@H](CCC(=O)O)C(=O)N[C@@H](CCCCN)C(=O)N[C@@H](CC(C)C)C(=O)N[C@@H](Cc1ccc(O)cc1)C(N)=O` [Peptide 8], the “Tm (° C.)” value at cJun bZIP was 67.2 ± 0.8 °C. For the same compound, the “fold increase in antagonism relative to the linear counterpart 5” value on cJun/TRE DNA interaction (ratio of CD IC50) worked out at 1.8 fold.

Take `CC[C@H](C)[C@H](NC(=O)[C@H](CCC(=O)O)NC(=O)[C@@H]1CC(=O)NCCCC[C@H](NC(=O)[C@H](CC(N)=O)NC(=O)[C@H](CCCCN)NC(=O)[C@H](CCC(=O)O)NC(=O)[C@H](CCC(=O)O)NC(=O)[C@H](CC(C)C)NC(=O)[C@H](CCC(N)=O)NC(=O)[C@H](CCC(=O)O)NC(=O)[C@@H](NC(=O)[C@H](CCC(=O)O)NC(=O)[C@H](CCC(=O)O)NC(=O)[C@H](CCC(=O)O)NC(=O)[C@H](CC(C)C)NC(=O)[C@@H](NC(=O)[C@H](CC(=O)O)NC(=O)[C@H](CCC(=O)O)NC(=O)[C@H](CCC(=O)O)NC(=O)[C@@H](NC(=O)[C@@H](NC(=O)[C@H](CC(C)C)NC(=O)[C@H](CCC(=O)O)NC(=O)[C@H](CCC(=O)O)NC(=O)[C@H](C)NC(=O)[C@H](CCC(=O)O)NC(C)=O)C(C)C)C(C)C)C(C)C)[C@@H](C)CC)C(=O)N[C@@H](C)C(=O)N[C@@H](CC(C)C)C(=O)N[C@@H](CCCCN)C(=O)N1)C(=O)N[C@@H](CCC(=O)O)C(=O)N[C@@H](CC(=O)O)C(=O)N[C@@H](CC(C)C)C(=O)N[C@@H](Cc1ccc(O)cc1)C(N)=O` [Peptide 27] (Ac-EAEELVVEEDVLEEEIEQLEEKNKALKDEIEDLY-NH2; lactam 24-28): the “Tm (° C.)” value at cJun bZIP was 52.5 ± 1.4 °C. Besides, the “fold reduction in cJun/TRE antagonism relative to 1” value on cJun/TRE DNA interaction (ratio of CD IC50) was 8.8 fold.

As for “Ac-EAEELVVEEDVLEEEIEQLEERNYALRKEIEDL-NH2 [Peptide 25]”, the “Tm (° C.)” value at cJun bZIP worked out at 44.8 ± 1.2 °C. Besides, at cJun/TRE DNA interaction (ratio of CD IC50), the “fold reduction in antagonism relative to 4” value is on record as 26.7 fold and the “fold reduction in antagonism relative to 11” value came out at 14.8 fold.

For “Ac-EAEELVVEEDVLEEEIEQLEERNYALRKEIEDLQKQ-NH2 [Peptide 11]”, the “Tm (° C.)” value on cJun bZIP was found to be 57.1 ± 0.9 °C. Besides, on cJun, the “ΔG” value is -8.15 ± 0.098 kcal/mol; the “ΔH” value was -5.989 ± 0.813 kcal/mol; the “−TΔS” value was -2.14 ± 0.817 kcal/mol; the “Stoichiometry, n” value was 0.95 ± 0.09. For the same compound, the “fold reduction in antagonism relative to 4” value on cJun/TRE DNA interaction (ratio of CD IC50) is listed as 1.8 fold.
